In patent USRE38629E1, “Solid oral dosage form comprising a combination of metformin and glibenclamide” (Merck Sante, priority 1998, dated 2004):
Values after ≈ are worked out from the molar mass of the structure shown.

What was measured:
[1] = Glibenclamide particle size distribution; type: physicochemical; details: glibenclamide batch
Method: In-vivo bioavailability tests were performed with tablets prepared as disclosed in example 2, using two batches of glibenclamide. The two batches have the following 10 to 90% particle size range:
The distribution of the particle size of batches A and B are illustrated in FIG. 1.
Data from the studies with metformin hydrochloride/glibenclamide tablets formulated with glibenclamide of different particle size characteristics allowed the development of a correlation between drug particle size and the in vivo performance.

[2] = in water at 25° C.; cited from earlier work

SMILES | 10 to 90% particle size range [1] | solubility [2]
COc1ccc(Cl)cc1C(=O)NCCc1ccc(S(=O)(=O)NC(=O)NC2CCCCC2)cc1 [batch A, glibenclamide] | 3.47-38.08 μm | –
COc1ccc(Cl)cc1C(=O)NCCc1ccc(S(=O)(=O)NC(=O)NC2CCCCC2)cc1 [batch B, glibenclamide] | 15.63-91.6 μm | –
COc1ccc(Cl)cc1C(=O)NCCc1ccc(S(=O)(=O)NC(=O)NC2CCCCC2)cc1 [glibenclamide] | – | 0.1 mg/mL (≈ 202 µM)
